Results as given in patent US11254690B2, “PTEFb inhibiting macrocyclic compounds” (BAYER AKTIENGESELLSCHAFT, priority 2017, dated 2022).
Values joined by “and” are separate entries in the source; they are usually repeats but may differ in a detail not shown here. Equal entries are not always repeated.

Key:
Caco-2 cells = test: Proliferation assay, Caco-2; format: cell-based; details: Homo sapiens, Caco-2, 96 h; 4 days, crystal violet; read-out: Inhibition of Caco-2 cell proliferation IC50
Description: Cultivated tumour cells (HeLa, human cervical tumour cells, ATCC CCL-2; NCI-H460, human non-small cell lung carcinoma cells, ATCC HTB-177; DU 145, hormone-independent human prostate carcinoma cells, ATCC HTB-81; HeLa-MaTu-ADR, multidrug-resistant human cervical carcinoma cells, EPO-GmbH Berlin; Caco-2, human colorectal carcinoma cells, ATCC HTB-37; B16F10, mouse melanoma cells, ATCC CRL-6475) were plated at a density of 5,000 cells/well (DU145, HeLa-MaTu-ADR), 3,000 cells/well (NCI-H460, HeLa), 1,500 cells/well (Caco-2), or 1,000 cells/well (B16F10) in a 96-well multititer plate in 200 μL of their respective growth medium supplemented 10% fetal calf serum. After 24 hours, the cells of one plate (zero-point plate) were stained with crystal violet (see below), while the medium of the other plates was supplemented with the test substances in various concentrations (0 μM, as well as in the range of 0.0001-10 μM; the final concentration of the solvent dimethyl sulfoxide was adjusted to 0.1%) using a Hewlett-Packard HP D300 Digital Dispenser. The cells were incubated for 4 days in the presence of test substances. Cell proliferation was determined by staining the cells with crystal violet: the cells were fixed by adding 20 μl/measuring point of an 11% glutaric aldehyde solution for 15 minutes at room temperature. After three washing cycles of the fixed cells with water, the plates were dried at room temperature. The cells were stained by adding 100 μl/measuring point of a 0.1% crystal violet solution (pH 3.0). After three washing cycles of the stained cells with water, the plates were dried at room temperature. The dye was dissolved by adding 100 μl/measuring point of a 10% acetic acid solution. The extinction was determined by photometry at a wavelength of 595 nm. The change of cell number, in percent, was calculated by normalization of the measured values to the extinction values of the zero-point plate (=0%) and the extinction of the untreated ([…]) cells (=100%). The IC50 values (inhibitory concentration at 50% of maximal effect) were determined by means of a 4 parameter fit. A2780 human ovarian carcinoma cells (ECACC #93112519) and non-adherent MOLM-13 human acute myeloid leukemia cells (DSMZ ACC 554) were seeded at a density of 3,000 cell/well (A2780) or 5,000 cells/well (MOLM-13) in a 96-well multititer plate in 150 μL of growth medium supplemented 10% fetal calf serum. After 24 hours, cell viability of one plate (zero-point plate) was determined with the Cell Titre-Glo Luminescent Cell Viability Assay (Promega), while the medium of the other plates was supplemented with the test substances in various concentrations (0 μM, as well as in the range of 0.0001-10 μM; the final concentration of the solvent dimethyl sulfoxide was adjusted to 0.1%) using a Hewlett-Packard HP D300 Digital Dispenser. Cell viability was assessed after 72-hour exposure with the Cell Titre-Glo Luminescent Cell Viability Assay (Promega). IC50 values (inhibitory concentration at 50% of maximal effect) were determined by means of a 4 parameter fit on measurement data which were normalized to vehicle (DMSO) treated cells (=100%) and measurement readings taken immediately before compound exposure (=0%).

[1] = target: T1, human PTEFb (CDK9/Cyclin T1) (Homo sapiens, UniProt P50750); test: Surface Plasmon Resonance PTEFb; format: binding; details: SPR, 37° C.; for residence time / Target residence time: 1/koff; for residence time / koff / Target residence time / Dissociation rate constant koff: * = arithmetic means; for residence time: read-out: Target residence time; for Kd: * = arithmetic means of more than one value, read-out: Equilibrium dissociation constant KD; for koff / Dissociation rate constant koff: < = below what is resolvable; for koff: read-out: Dissociation rate constant koff
T1 construct: purchased ProQinase, Freiburg, Germany
Description: 8. Surface Plasmon Resonance PTEFb
The term “surface plasmon resonance”, as used herein, refers to an optical phenomenon that allows for the analysis of the reversible associations of biological molecules in real time within a biosensor matrix, for example using the Biacore® system (GE Healthcare Biosciences, Uppsala, Sweden). Biacore® uses the optical properties of surface plasmon resonance (SPR) to detect alterations in the refractive index of a buffer, which changes as molecules in solution interact with the target immobilized on the surface. In brief, proteins are covalently bound to the dextran matrix at a known concentration and a ligand for the protein is injected through the dextran matrix. Near infrared light, directed onto the opposite side of the sensor chip surface is reflected and also induces an evanescent wave in the gold film, which in turn, causes an intensity dip in the reflected light at a particular angle known as the resonance angle. If the refractive index of the sensor chip surface is altered (e.g. by compound binding to the bound protein) a shift occurs in the resonance angle. This angle shift can be measured.
The term “KD”, as used herein, is intended to refer to the equilibrium dissociation constant of a particular compound/target protein complex.
The term “koff”, as used herein, is intended to refer to the off-rate, i.e. the dissociation rate constant of a particular compound/target protein complex.
The term “target residence time”, as used herein, is intended to refer to the inverse of the rate of dissociation rate constant (1/koff) of a particular compound/target protein complex.
The ability of the compounds according to the invention to bind human PTEFb may be determined using surface plasmon resonance (SPR). KD values and koff values may be measured using a Biacore® T200 instrument (GE Healthcare, Uppsala, Sweden).
For SPR measurements, recombinant human PTEFb (CDK9/Cyclin T1 recombinant human active protein kinase purchased from ProQinase, Freiburg, Germany) is immobilized using standard amine coupling (Johnsson B et al, Anal Biochem. 1991 Nov. 1; 198(2):268-77). Briefly, carboxymethylated dextran biosensor chips (CM7, GE Healthcare) are activated with N-ethyl-N′-(3-dimethylaminopropyl)-carbodiimide hydrochloride (EDC) and N-hydroxysuccinimide (NHS) according to the supplier's instructions. Human PTEFb is diluted in 1×HBS-EP+ (GE Healthcare) and injected on the activated chip surface. Subsequently, a 1:1 solution of 1 M ethanolamine-HCl (GE Healthcare) and 1×HBS-EP is injected to block unreacted groups, resulting in approximately 4000 response units (RU) of immobilized protein. A reference surface is generated by treatment with NHS-EDC and ethanolamine-HCl. Compounds are dissolved in 100% dimethylsulfoxide (DMSO, Sigma-Aldrich, Germany) to a concentration of 10 mM and subsequently diluted in running buffer (1×HBS-EP+pH 7.4 [generated from HBS-EP+ Buffer 10× (GE Healthcare): 0.1 M HEPES, 1.5 M NaCl, 30 mM EDTA and 0.5% v/v Surfactant P20], 1% v/v DMSO). For kinetic measurements, serial dilutions of compound (0.78 nM up to 25 nM) are injected over immobilized protein. Binding kinetics is measured at 37° C. with a flow rate of 100 μl/min in running buffer. Compound concentrations are injected for 70 s followed by a dissociation time of 1100 s. The resulting sensorgrams are double-referenced against the reference surface as well as against blank injections.
The double-referenced sensorgrams are fit to a simple reversible Langmuir 1:1 reaction mechanism as implemented in the Biacore® T200 evaluation software 2.0 (GE Healthcare). In cases were full compound dissociation has not occurred at the end of the dissociation phase, the Rmax parameter (response at saturation) is fit as local variable. In all other cases, Rmax is fit as global variable.

T1 sequence (P50750 whole entry): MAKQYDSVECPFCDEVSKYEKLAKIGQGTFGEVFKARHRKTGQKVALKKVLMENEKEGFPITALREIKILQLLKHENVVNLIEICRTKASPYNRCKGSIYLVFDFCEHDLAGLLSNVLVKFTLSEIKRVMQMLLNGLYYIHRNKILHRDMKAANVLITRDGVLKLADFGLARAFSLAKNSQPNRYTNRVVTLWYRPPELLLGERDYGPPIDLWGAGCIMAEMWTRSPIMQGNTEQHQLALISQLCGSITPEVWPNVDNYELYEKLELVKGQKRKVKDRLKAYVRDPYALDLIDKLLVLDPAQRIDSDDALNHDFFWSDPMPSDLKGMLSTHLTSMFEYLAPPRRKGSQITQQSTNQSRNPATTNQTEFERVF
T1 sequence (O60563 whole entry partner): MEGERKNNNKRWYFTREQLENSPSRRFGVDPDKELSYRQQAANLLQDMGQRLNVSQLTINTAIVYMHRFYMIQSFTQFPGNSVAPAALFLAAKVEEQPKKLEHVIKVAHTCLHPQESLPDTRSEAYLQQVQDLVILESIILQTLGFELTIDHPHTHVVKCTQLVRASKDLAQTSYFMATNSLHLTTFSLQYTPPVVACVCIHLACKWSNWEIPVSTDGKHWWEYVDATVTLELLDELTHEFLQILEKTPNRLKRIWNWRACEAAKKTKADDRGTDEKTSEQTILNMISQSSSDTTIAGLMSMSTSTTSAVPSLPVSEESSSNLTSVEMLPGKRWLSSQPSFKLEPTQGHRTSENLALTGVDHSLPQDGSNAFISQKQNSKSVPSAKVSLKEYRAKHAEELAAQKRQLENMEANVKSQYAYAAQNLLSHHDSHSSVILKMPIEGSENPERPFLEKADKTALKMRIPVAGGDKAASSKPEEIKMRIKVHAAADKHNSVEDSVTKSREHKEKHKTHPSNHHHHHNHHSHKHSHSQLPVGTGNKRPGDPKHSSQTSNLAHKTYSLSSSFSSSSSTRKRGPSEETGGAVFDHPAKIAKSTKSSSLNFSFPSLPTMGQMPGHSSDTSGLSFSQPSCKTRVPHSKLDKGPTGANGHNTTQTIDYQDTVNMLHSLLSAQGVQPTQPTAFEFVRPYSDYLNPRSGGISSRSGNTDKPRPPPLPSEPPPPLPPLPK

| IC50 (Caco-2 cells) | Kd [1] | Compound | other results |
| --- | --- | --- | --- |
| – | 0.092 nM and 0.091 nM and 0.12 nM | CC1CCCOc2cc(ccc2F)-c2cc(ncc2F)Nc2cc(CS(C)(=O)=O)cc(n2)O1 (racemic) [Example 28, 3,20-difluoro-14-methyl-10-[(methylsulfonyl)methyl]-13,18-dioxa-5,7,24-triazatetracyclo[17.3.1.1^2,6.1^8,12]pentacosa-1(23),2(25),3,5,8(24),9,11,19,21-nonaene] | – |
| – | 0.077 nM | CC1CCCOc2cc(ccc2F)-c2cc(ncc2F)Nc2cc(CS(C)(=N)=O)cc(n2)O1 (single isomer, unassigned) [Example 17, 3,20-difluoro-14-methyl-10-[(S-methylsulfonimidoyl)methyl]-13,18-dioxa-5,7,24-triazatetracyclo[17.3.1.1^2,6.1^8,12]pentacosa-1(23),2(25),3,5,8(24),9,11,19,21-nonaene] | residence time [1]: > 208 min; koff [1]: < 8e-05 s⁻¹ |
| – | 1 nM | CC1CCCCOc2cc(ccc2F)-c2cc(ncc2F)Nc2cc(CS(C)(=N)=O)cc(n2)O1 (single isomer, unassigned) [Example 21, 3,21-difluoro-14-methyl-10-[(S-methylsulfonimidoyl)methyl]-13,19-dioxa-5,7,25-triazatetracyclo[18.3.1.1^2,6.1^8,12]hexacosa-1(24),2(26),3,5,8(25),9,11,20,22-nonaene] | Target residence time [1]: 10* min; Dissociation rate constant koff [1]: 1.6E−3* 1/s |
| – | 0.19 nM | CC1CCCCOc2cc(ccc2F)-c2cc(ncc2F)Nc2cc(CS(C)(=N)=O)cc(n2)O1 (single isomer, unassigned) [Example 22, 3,21-difluoro-14-methyl-10-[(S-methylsulfonimidoyl)methyl]-13,19-dioxa-5,7,25-triazatetracyclo[18.3.1.1^2,6.1^8,12]hexacosa-1(24),2(26),3,5,8(25),9,11,20,22-nonaene] | Target residence time [1]: 43* min; Dissociation rate constant koff [1]: 3.9E−4* 1/s |

Second part, the compound before the results:

| Compound | IC50 (Caco-2 cells) | Kd [1] | other results |
| --- | --- | --- | --- |
| CS(=N)(=O)Cc1cc2nc(c1)OCCCCOc1cc(ccc1F)-c1cc(ncc1F)N2 (racemic) [Example 2, (rac)-3,20-difluoro-10-[(S-methylsulfonimidoyl)methyl]-13,18-dioxa-5,7,24-triazatetracyclo[17.3.1.1^2,6.1^8,12]pentacosa-1(23),2(25),3,5,8(24),9,11,19,21-nonaene] | 96 nM | 1.2 nM | residence time [1]: 75 min; koff [1]: 0.00022 s⁻¹ |
| CC(C)(C)OC(=O)N=S(C)(=O)Cc1cc2cc(c1)OCCCCOc1cc(ccc1F)-c1nc(ncc1F)N2 (racemic) [Example 3, (rac)-tert-butyl [{[3,20-difluoro-13,18-dioxa-5,7,25-triazatetracyclo[17.3.1.1^2,6.1^8,12]pentacosa-1(23),2(25),3,5,8(24),9,11,19,21-nonaen-10-yl]methyl}(methyl)oxido-λ^6-sulfanylidene]carbamate] | 163 nM | – | – |
| CC(C)(C)OC(=O)N=S(C)(=O)Cc1cc2cc(c1)OCCCCCOc1cc(ccc1F)-c1nc(ncc1F)N2 (racemic) [Example 5, (rac)-tert-butyl [{[3,21-difluoro-13,19-dioxa-5,7,26-triazatetracyclo[18.3.1.1^2,6.1^8,12]hexacosa-1(24),2(26),3,5,8(25),9,11,20,22-nonaen-10-yl]methyl}(methyl)oxido-λ^6-sulfanylidene]carbamate] | 658 nM | – | – |
| CS(=N)(=O)Cc1cc2cc(c1)OCCCCCOc1cc(ccc1F)-c1nc(ncc1F)N2 (racemic) [Example 6, (rac)-3,21-difluoro-10-[(S-methylsulfonimidoyl)methyl]-13,19-dioxa-5,7,26-triazatetracyclo[18.3.1.1^2,6.1^8,12]hexacosa-1(24),2(26),3,5,8(25),9,11,20,22-nonaene] | 144 nM | – | – |
| CS(=N)(=O)Cc1cc2cc(c1)OCCCCOc1c(F)ccc(c1F)-c1nc(ncc1F)N2 (racemic) [Example 8, (rac)-3,20,23-trifluoro-10-[(S-methylsulfonimidoyl)methyl]-13,18-dioxa-5,7,25-triazatetracyclo[17.3.1.1^2,6.1^8,12]pentacosa-1(23),2(25),3,5,8(24),9,11,19,21-nonaene] | 181 nM | – | – |
| CS(=N)(=O)Cc1cc2cc(c1)OCCCOc1cc(ccc1F)-c1nc(ncc1F)N2 (racemic) [Example 10, (rac)-3,19-difluoro-10-[(S-methylsulfonimidoyl)methyl]-13,17-dioxa-5,7,24-triazatetracyclo[16.3.1.1^2,6.1^8,12]tetracosa-1(22),2(24),3,5,8(23),9,11,18,20-nonaene] | 159 nM | – | – |
| CC1CCCOc2cc(ccc2F)-c2cc(ncc2F)Nc2cc(CS(C)(=N)=O)cc(n2)O1 (single isomer, unassigned) [Example 16, 3,20-difluoro-14-methyl-10-[(S-methylsulfonimidoyl)methyl]-13,18-dioxa-5,7,24-triazatetracyclo[17.3.1.1^2,6.1^8,12]pentacosa-1(23),2(25),3,5,8(24),9,11,19,21-nonaene] | – | – | Target residence time [1]: > 208 min and 131 min; Dissociation rate constant koff [1]: < 8e-05 s⁻¹ and 0.00013 s⁻¹ |
